Measurements published in US8361987B2, “DNA vaccines encoding heat shock proteins” (priority 2002, dated 2013).

Legend:
lymph node cells (LNC) = test: T-cell proliferation ([methyl-3H]-thymidine incorporation, stimulation index) of cells from vaccinated rats; assay type: cell-based, Lewis rats; conditions: for T-cell response to the immunizing peptide: LNC of peptide-vaccinated rats after AA induction
Procedure: Popliteal and inguinal lymph node cells (LNC) taken 26 days after the induction of AA were cultured in quadruplicates in 200 μl round bottom microtiter wells (Costar Corp., Cambridge, USA) at 2×10^5 cells per well with or without antigen. The T-cell mitogen Concanavalin A (Con A) was used as a positive control for T-cell proliferation. Cultures were incubated for 96 hrs at 37° C. in a humidified atmosphere of 5% CO2. T-cell responses were detected by the incorporation of [methyl-^3H]-thymidine (Amersham, Buckinghamshire, UK; 1 μCi/well), which was added to the wells for the last 18 hours. The stimulation index (SI) was computed as the ratio of the mean c.p.m. of antigen- or mitogen-containing wells to control wells cultured with medium alone.

adjuvant arthritis (AA) [1] = test: Adoptive transfer of Con A-activated splenocytes from peptide-vaccinated rats, then AA induction in recipients; assay type: in vivo, Lewis rats; conditions: 5×10^7 Con A-activated splenocytes of peptide-vaccinated donors iv; AA induced three days later
Procedure: Spleen cells were prepared from peptide-vaccinated rats 26 days after the induction of AA. The splenocytes (10^7 cells per ml) were activated with 2.5 μg/ml of Con A for 48 hr at 37° C. in a humidified atmosphere of 5% CO2. The cells were washed with sterile PBS and injected iv into naïve rats (5×10^7 cells per rat). Three days after the transfer of the splenocytes, AA was induced.
To learn whether the protection triggered by Hu3-vaccination could be adoptively transferred by activated T-cells, splenocytes prepared from Hu3 vaccinated rats were stimulated in vitro for 2 days with the T-cell mitogen Con A, washed, and injected iv (5×10^7 cells per rat) into naïve rats. Only the recipients of cells taken from Hu3-vaccinated rats were protected against the subsequent induction of AA (FIGS. 4A and 4B). […] Thus, inhibition of AA by vaccination with Hu3 could be adoptively transferred by activated T-cells.

adjuvant arthritis (AA) [2] = test: Adjuvant arthritis (AA) induction and assessment after DNA or peptide vaccination; assay type: in vivo, Lewis rats
Procedure: Plasmid DNA was prepared in large scale and injected after pretreatment with cardiotoxin (Sigma, Rehovot, Israel). Briefly, rats were vaccinated in the quadriceps three times (on days −40, −26 −12 relative to AA induction) with 150 μg of pcDNA3, pI, pII, pIII, pIV or pV. Endotoxin levels were checked by Limulus Amoebocyte Lysate and found always to be under acceptable levels for in vivo use (less than 0.02 EU/μg DNA). AA was induced 12 days after the last injection of DNA. The empty vector pcDNA3 was used as a DNA vaccination control.
AA was induced using 1 mg per rat of heat-killed Mt strain H37Ra (Difco). The day of AA induction was designated as day 0, and disease severity was assessed by direct observation of all 4 limbs in each animal. A relative score between 0 and 4 was assigned to each limb, based on the degree of joint inflammation, redness and deformity; thus the maximum possible score for an individual animal was 16. Arthritis was also quantified by measuring hind limb diameter with a caliper. Measurements were taken on the day of AA induction and 26 days later, and they are presented as the mean±SEM of the difference between the two values. The person who scored the disease was blinded to the identity of the groups. […]

[3] = tested on: IFNγ, IL-10 and TGFβ1 secretion by LNC; test: Cytokine assays (ELISA of culture supernatants after 72 hrs antigen stimulation); assay type: cell-based, Lewis rats
Description: Supernatants were collected after 72 hrs of stimulation with each of the antigens tested. Rat IL-10 and IFNγ were quantitated in culture supernatants by enzyme-linked immunosorbent assay (ELISA) using Pharmingen's OPTEIA kit (Pharmingen, San Diego, USA). Rat TGFβ1 was quantified using the TGFβ1 Emax® ImmunoAssay System (Promega, Madison, USA) according to the manufacturer's instructions. Cytokine levels in supernatants are expressed as pg/ml based on calibration curves constructed using recombinant cytokines as standards. The lower limits of detection for the experiments described in this paper were 15 pg/ml for TGFβ1, IL-10 and IFNγ.

[4] = LNC day 26 after AA induction, 72 hr
[5] = LNC of peptide-vaccinated rats, day 26 after AA induction

Sequence: EEIAQVATISANGDKEIGNI [Hu12, human HSP60 peptide 166-185, control peptide, reference compound]
- T-cell response to the immunizing peptide (lymph node cells (LNC)): significant and specific T-cell responses
- T-cell response to the immunizing peptide (lymph node cells (LNC); listed as HU12): proliferated

Sequence: AYDEEARRGLERGLNALADA [Mt3, mycobacterial HSP65 peptide, counterpart of Hu3, reference compound]
- protection of recipients against subsequent induction of AA (adjuvant arthritis (AA) [1]): No protection
- T-cell response to the immunizing peptide (lymph node cells (LNC)): significant and specific T-cell responses

Sequence: KFGADARALMLQGVDLLADA (listed as Homo sapiens) [Hu3]
- ankle swelling (adjuvant arthritis (AA) [2]; peptide vaccination 100 μg in IFA day −7, day 26 after AA induction, vs 32.2±3.5 in PBS/IFA, p=0.02): 14.2±4.7
- AA disease severity after peptide vaccination (adjuvant arthritis (AA) [2]; single i.p. dose of 100 μg peptide in IFA on day −7, compared to non-immunized rats or PBS, Hu12 or Mt3): significantly decreased disease
- protection of recipients against subsequent induction of AA (adjuvant arthritis (AA) [1]): protected
- T-cell proliferative responses to both self- and mycobacterial antigens (lymph node cells (LNC); LNC day 26 after AA induction): up-regulation
- proliferative response to HSP60 (lymph node cells (LNC); LNC day 26 after AA induction): induction of a specific response
- proliferative response to control peptide Hu12 (lymph node cells (LNC); LNC day 26 after AA induction): no responses
- proliferative response to Hu3 (lymph node cells (LNC); LNC day 26 after AA induction, stimulated in vitro with Hu3): recognized
- T-cell proliferative responses to mycobacterial antigens (PPD, HSP65, Mt176-190) (lymph node cells (LNC); LNC day 26 after AA induction, relative to controls): up-regulated
- T-cell response to the immunizing peptide (lymph node cells (LNC)): significant and specific T-cell responses
- IFNγ secretion upon stimulation with mycobacterial antigens (PPD, HSP65, Mt176-190) [3, 4]: reduction
- IL-10 secretion upon stimulation with mycobacterial antigens (PPD, HSP65, Mt176-190) [3, 4]: increase
- TGFβ1 secretion upon stimulation with mycobacterial antigens (PPD, HSP65, Mt176-190) [3, 4]: increase
- secretion of IFNγ, stimulated with Hu3 ([3]; LNC day 26 after AA induction, relative to respective controls (FIG. 12B)): increased
- cytokine response to whole HSP60 [3, 5]: predominantly TFGβ1
- cytokines secreted in response to Hu3 [3, 5]: secreted IFNγ, IL-10 and TGFβ1
